Test results from patent US20260092068A1, “PHYSICAL FORMS OF AN INHIBITOR OF PRC2” (ORIC Pharmaceuticals, Inc., priority 2022, published 2026).

Experiment: Stability of Form 2 of Compound 1 under storage conditions (impurities by UPLC, solid form by XRPD)
Type: physicochemical
Details: for Storage stability: up to 6 months
Protocol: To measure stability of the Form 2 of Compound 1 under storage conditions, samples of Form 2 of Compound 1 were placed in double low-density polyethylene bags with desiccant between the bags and each was placed into a high-density polyethylene drum. One drum was stored at a temperature of 25° C. and 60% relative humidity (RH), and a second drum was stored at a temperature of 40° C. and 75% RH. Samples of the material were taken from both drums at 1 month, 3 months, and 6 months and the samples were analyzed for the presence of impurities. The amount of the Form 2 of Compound 1, and the amount of any impurities, in each sample was measured by ultra-performance liquid chromatography (UPLC) using the test conditions set and solvent gradients forth in Table 5 and Table 6. The samples were tested to determine the amount remaining of Form 2 at each time point, and the measurements were conducted by x-ray powder diffraction (XRPD) according to USP <941>.

[1] = 25° C. and 60% RH, Initial (Time = zero)
[2] = 40° C. and at 75% RH, Initial (Time = zero)

Q: With `Cc1cc(CN(C)C)ccc1-c1cnc(NCc2c(F)ccc3c2CCO3)n2cc(C#N)nc12` [Form 2 of Compound 1, 8-(4-((dimethylamino)methyl)-2-methylphenyl)-5-(((5-fluoro-2,3-dihydrobenzofuran-4-yl)methyl)amino)imidazo[1,2-c]pyrimidine-2-carbonitrile] as the molecule, how does the “Total impurities present (% area measured by UPLC)” value [1] read?
A: The value was 1.4 % area.

Q: What about the XRPD [1] of the same molecule?
A: Its XRPD is “Crystalline”.

Q: And the “Total impurities present (% area measured by UPLC)” value (25° C. and 60% RH, Time = 1 month)?
A: Its value is 1.4 % area.

Q: And the XRPD (25° C. and 60% RH, Time = 1 month, consistent with T = 0)?
A: Its XRPD is “Crystalline”.

Q: What about the “Total impurities present (% area measured by UPLC)” value (25° C. and 60% RH, Time = 3 months) of the same molecule?
A: The value was 1.4 % area.

Q: What about the XRPD (25° C. and 60% RH, Time = 3 months, consistent with T = 0) of the same molecule?
A: The XRPD was “Crystalline”.

Q: And the “Total impurities present (% area measured by UPLC)” value (25° C. and 60% RH, Time = 6 months)?
A: The value was 1.4 % area.

Q: And the XRPD (25° C. and 60% RH, Time = 6 months, consistent with T = 0)?
A: Its XRPD is “Crystalline”.

Q: And the “Total impurities present (% area measured by UPLC)” value [2]?
A: The value was 1.4 % area.

Q: What about the XRPD [2] of the same molecule?
A: Its XRPD is “Crystalline”.

Q: What about the “Total impurities present (% area measured by UPLC)” value (40° C. and at 75% RH, Time = 1 month) of the same molecule?
A: The value was 1.4 % area.

Q: And the XRPD (40° C. and at 75% RH, Time = 1 month, consistent with T = 0)?
A: The XRPD was “Crystalline”.

Q: What about the “Total impurities present (% area measured by UPLC)” value (40° C. and at 75% RH, Time = 3 months) of the same molecule?
A: Its value is 1.4 % area.

Q: And the XRPD (40° C. and at 75% RH, Time = 3 months, consistent with T = 0)?
A: The XRPD was “Crystalline”.

Q: And the “Total impurities present (% area measured by UPLC)” value (40° C. and at 75% RH, Time = 6 months)?
A: The value was 1.4 % area.

Q: And the XRPD (40° C. and at 75% RH, Time = 6 months, consistent with T = 0)?
A: The XRPD was “Crystalline”.

Q: What about the Storage stability (stored at 25° C. and 60% RH) of the same molecule?
A: The Storage stability was “stable”.

Q: And the Storage stability (stored at 40° C. and at 75% RH)?
A: The Storage stability was “stable”.
